Test results: paper PMC6815954, “Rational design of caspase-responsive smart molecular probe for positron emission tomography imaging of drug-induced apoptosis” (Theranostics, 2019)
Read-outs that look alike come from different tables or passages of the source.

Experiments:
[1] = test system: intact caspase-3 (35 kDa); experiment: Western blotting of DOX-treated HeLa cells, intact caspase-3; type: cell-based, human; details: 24 h
Protocol: (§1) Western blotting analysis of caspase-3 activity in DOX-treated HeLa cells HeLa cells were seeded into 6-well plates at the density of 5 ×10^5 cells/well, followed by treatment with various concentrations of DOX for 24 h. Cells were washed with ice-cold PBS and then lysed at 4 °C for 5 min with RIPA lysis buffer containing protease and phosphatase inhibitors (Halt Protease Inhibitor Cocktail, Thermo Fisher Scientific Inc.). Soluble lysates were harvested by centrifugation at 12,000 rpm for 10 min at 4 °C. The content of protein was […]
(§2) (1 picture or pasted object on this page, not shown here) […]
(§3) measured using BCA protein assay kit and 40 μg of protein was separated with a 12% […]
(§4) SDS-PAGE gel. After blotting to PVDF membrane, the membranes were blocked with 5% […]
(§5) skimmed milk in tris-buffered saline (TBS, pH 7.4) for 60 min at room temperature and […]
(§6) incubated overnight at 4 °C in buffer (TBS with 0.1% Tween-20 and 5% skimmed milk) […]
(§7) containing different antibodies. Detection of primary antibodies was performed with […]
(§8) HRP-conjugated secondary antibody. Immunoreactive bands were visualized with Western […]
(§9) blotting luminol reagent. Densitometric analysis was performed using Image J software. […]
(§10) The DOX-treated group was cultured in the presence of DOX (2 µM) […]
(§11) for 6 h at 37 °C, then the medium was changed and the cells were cultured for another 24 h at […]
(§12) 37 °C. After incubated with 1-FITC (2 µM) for 6 h at 37 °C, the cells were washed with PBS, […]
(§13) fixed with 3.7% formaldehyde in PBS and permeabilized with 0.1% Triton X-100 in PBS for […]
(§14) 30 min at room temperature. Cells were blocked with 5% BSA in PBS for 30 min, and then […]
(§15) washed with PBS. Afterwards, cells were incubated with anti-caspase-3 antibody (caspase-3 […]
(§16) rabbit monoclonal antibody, Beyotime) overnight at 4 °C, washed with PBS, and incubated […]
(§17) with Cy3-labeled goat anti-rabbit IgG (Beyotime) for 1 h. Cells were washed with PBS […]
(§18) andstained with DAPI (5 µg/mL) for 2 min, and thenwashed twice with PBS. Finally, the cells […]
(§19) were viewed with the Olympus Xcellence. […]

[2] = test system: active caspase-3 (19/17 kDa); experiment: Western blotting of DOX-treated HeLa cells, active caspase-3; type: cell-based, human; details: 24 h
Protocol: as §1, §2, §3, §4, §5, §6, §7, §8, §9, §10, §11, §12, §13, §14, §15, §16, §17, §18, §19

[3] = test system: activated caspase-3 (19/17 kDa); experiment: Western blotting of tumor and muscle lysates; type: in vivo, BALB/c nude mice; details: DOX intratumoral; normalized to β-actin; n = 3
Protocol: At the end of microPET imaging, DOX-treated or untreated mice were killed. Tumor and muscle tissues (~100 mg) were homogenized by an electronic homogenate machine in RIPA lysis buffer (1 mL) containing protease and phosphatase inhibitors (Halt Protease Inhibitor Cocktail, Thermo Fisher Scientific Inc.). Soluble lysates were harvested by centrifugation at 12,000 rpm for 10 min at 4 °C. Protein content was measured using BCA protein assay kit and 40 μg of protein was separated with a 12% SDS-PAGE gel. After blotting to PVDF membrane, the membranes were blocked with 5% skimmed milk in tris-buffered saline (TBS, pH 7.4) for 60 min at room temperature and incubated overnight at 4 °C in buffer (TBS with 0.1% Tween-20 and 5% skimmed milk) containing different antibodies. Detection of primary antibody was performed with HRP-conjugated secondary antibody. Immunoreactive bands were visualized with Western blotting luminol reagent. Densitometric analysis was performed using Image J software.

[4] = test system: tumor; details: cited from earlier work
Text: Recently, a potential PET imaging agent [^18F]ICMT-11 for monitoring the tumor cell death has been approved for clinical trials, where only a modest increase of 65% uptake can be observed in the treated tumor in comparison with the vehicle control tumor [36].

[5] = test system: tumor; parameters: method as in PMID 25972517; details: cited from earlier work
[6] = test system: HeLa cells; experiment: Cellular uptake assay of [^18F]1; type: cell-based, human
Protocol: green fluorescence) for 6 h. The active caspase-3 was stained with anti-caspase-3 primary antibody and a Cy3-labeled secondary antibody (red fluorescence). The cell nuclei were stained with DAPI (blue fluorescence). The images of 1-FITC and active caspase-3 were merged in the last column.
HeLa cells were seeded into a 6-well plate and incubated for 24 h at 37 °C. The cells were cultured in the presence of DOX (2 µM) at 37 °C for 0, 2, 4, 6, 12, and 24 h, respectively. The probe [ 18F]1 (1.0 µCi, 0.037 MBq) was added to each well and incubated for additional 4 h at 37 °C. For inhibition assay, the caspase inhibitor Z-VAD-FMK (50 µM) was added to the DOX-treated cells for 48 h before the addition of [ 18F]1. To study the influence of cold compound 1 on cellular uptake of [ 18F]1 in DOX-treated or untreated cells, HeLa cells were incubated with the cold compound 1 (10 µM) and [ 18F]1 for 4 h at 37 °C.The cells were harvested withcentrifugal separationat 4,000 rpm for 5 min after washing twice with PBS. Then Tryp-LE TM Express (1 mL) was added and the cells were kept for 1-2 min to allow detaching. The cell/Tryp-LE solution was counted by a γ counter and the activity was normalized to the protein concentration (determined by comparison with BSA standard in an absorption assay from Pierce) in each vial.
Figure S23. […]

[7] = test system: HeLa xenograft tumor; details: for tracer uptake ratio in DOX-treated versus untreated tumors: only [^18F]1
Protocol: BALB/c nude mice (18-20 g, 4-6 weeks old) were used for animal experiments. Mice were housed with free access to food and water, and allowed ample time to acclimatize before the experiments. The tumor models were established by subcutaneous injection of human cervical cancer cells HeLa (1~2×10^6) suspended in PBS (100 µL) in the right shoulder or the posterior limb of the nude mouse. The tumors were allowed to grow for around 3-4 weeks to reach the size of 0.5-1.0 cm in diameter. Then, a subset of mice were treated with intratumoral or intravenous injection of DOX (0.2 mg, in 20 µL). Three days later, the animals were used for PET imaging and then the tumors were removed for the analysis of caspase-3 activity. All procedures were approved by the Animal Care and Ethics Committee of Jiangsu Institute of Nuclear Medicine.
PET scanning was carried out using an Inveon Dedicated microPET scanner (Siemens). In all experiments, the mice were anesthetized with isoflurane (2% isoflurane in oxygen at a flow rate of 2 L/min). One group of HeLa-bearing mice were scanned at baseline (without DOX treatment) as a control. For the experimental groups, microPET imaging was performed for one group of mice three days after a single intratumoral injection of DOX (0.2 mg) and the other group was performed after intravenous injection of DOX (0.2 mg) every 4 days for a total of three administrations. The probe [^18F]1 (~100 μCi, in 100 μL physiological saline) was administrated by intravenous injection via the tail vein. For the co-injection group, the mice were administrated by intravenous injection of the probe [^18F]1 with the precursor 1 (20 µmol/kg) via the tail vein. PET images were acquired in a list mode date for 60 min. The PET data were binned into 12 frames and each frame was reconstructed with the OSEM3D/MAP algorithm using microPET Manager (version 6869, Siemens). The reconstructed pixel size was 0.78 × 0.78 × 0.80 mm on a 128 × 128 × 159 image matrix. All PET images were corrected for decay but not for attenuation. Each image was analyzed using ASIPro software (Siemens). […]

COc1cccc2c1C(=O)c1c(O)c3c(c(O)c1C2=O)C[C@@](O)(C(=O)CO)C[C@@H]3O[C@H]1C[C@H](N)[C@H](O)[C@H](C)O1 [DOX, doxorubicin]
decrease of intact caspase-3 expression versus DOX-untreated cells ([1]; 0.5 µM DOX): 1.3 folds
decrease of intact caspase-3 expression versus DOX-untreated cells ([1]; 1 µM DOX): 1.5 folds
decrease of intact caspase-3 expression versus DOX-untreated cells ([1]; 2 µM DOX): 2.1 folds
decrease of intact caspase-3 expression versus DOX-untreated cells ([1]; 4 µM DOX): 2.2 folds
increase of active caspase-3 expression versus DOX-untreated cells ([2]; 0.5 µM DOX): 3.3 folds
increase of active caspase-3 expression versus DOX-untreated cells ([2]; 1 µM DOX): 9.3 folds
increase of active caspase-3 expression versus DOX-untreated cells ([2]; 2 µM DOX): 13.4 folds
increase of active caspase-3 expression versus DOX-untreated cells ([2]; 4 µM DOX): 15.5 folds
expression level of activated caspase-3 in DOX-treated tumor versus muscle [3]: 7.5 folds
expression level of activated caspase-3 in DOX-treated tumor versus untreated tumor [3]: 4.5 folds

O=C1C(=O)N(Cc2cn(CC[18F])nn2)c2ccc(S(=O)(=O)N3CCCC3COc3ccc(F)cc3F)cc21 (stereo not shown) [[^18F]ICMT-11]
increase of uptake in treated tumor versus vehicle control tumor [4]: 65%

OC[C@H]1OC(O)[C@H]([18F])[C@@H](O)[C@@H]1O (stereo partly shown) [^18F-FDG]
response to cell death [5]: no differentiated response

CC(CCCCC[18F])(C(=O)O)C(=O)O [^18F-ML-10]
differential response to treatment [5]: little differential response
response to cell death [5]: no differentiated response

[^18F]DEVD-Cys(StBu)-PPG(CBT)-AmBF3 [[^18F]1]
uptake with versus without addition of cold compound 1 ([6]; DOX-untreated HeLa, cold 1 10 µM, 4 h, 37 °C): almost identical
retained [^18F] activity in DOX-treated cells with caspase inhibitor, versus untreated tumor cells ([6]; HeLa, DOX 24 h, Z-VAD-FMK 50 µM for 48 h before [^18F]1): almost identical
tumor-to-muscle uptake ratio in treated apoptotic tumor model relative to untreated group ([7]; 20 min post injection): more than two folds
tracer uptake ratio in DOX-treated versus untreated tumors ([7]; DOX intratumoral, 15-20 min post injection): 4.23
tracer uptake ratio in DOX-treated versus untreated tumors ([7]; DOX intravenous): 3.01
